Where two headings read alike, the source gives them in different places.
Experiments:
in vitro [1] = conditions: PAMPA
physchem = conditions: HPLC, Ascentis Express RP Amide column, pH 7.4, eLogD
in vitro [2] = conditions: human
in vitro [3] = conditions: Swiss, mouse
[4] = system: Leishmania infantum MHOM/MA(BE)/67/ITMAP263 intracellular amastigotes; assay: microbe, parasite or virus in culture; conditions: Macrophage, in Mus musculus
in vitro [5] = conditions: human, microsomes, human liver microsomes
[6] = system: primary peritoneal mouse macrophages (PMM); conditions: PMM IC50 / L. infantum IC50
[7] = system: Trypanosoma cruzi, Tulahuen CL2, beta-galactosidase strain; assay: microbe, parasite or virus in culture
in vitro [8] = conditions: mouse, microsomes, mouse liver microsomes
[9] = system: primary peritoneal mouse macrophages (PMM); assay: cells; conditions: Macrophage, read-out: PMM IC50 (uM)
in vitro [10] = conditions: human, HFF-1 cells
in vitro [11] = conditions: human, THP-1 cells differentiated with PMA
[12] = system: Leishmania infantum (MHOM/MA/67/ITMAP-263) intracellular amastigotes in THP-1; assay: microbe, parasite or virus in culture; conditions: THP-1, read-out: L. infantum MHOM/MA/67/ITMAP263 intracellular amastigotes THP-1 cells IC50 (uM)
in vitro [13] = conditions: PAMPA; remark: listed apart in the source
in vitro [14] = conditions: human, HepG2 cells
[15] = read-out: L. Inf. pIC50, from L. infantum intracellular amastigote IC50 (converted)
[16] = read-out: L. infantum MHOM/MA(BE)/67/ITMAP263 intracellular amastigotes IC50
[17] = MRC5, read-out: T. cruzi Tulahuen C4 (LacZ) IC50
[18] = read-out: L. infantum MHOM/MA(BE)/67/ITMAP263 intracellular amastigotes IC50 (uM), intracellular amastigotes
[19] = MRC5, read-out: T. cruzi Tulahuen C4 (LacZ) IC50 (uM)

SMILES | Papp (in vitro [1]) [×10⁻⁶ cm/s] | chromatographic logD (physchem) | CC50 at 3 days (in vitro [2]) [µM] | IC50 (in vitro [3]) [µM] | IC50 [4, 15] [µM] | IC50 [4, 16] [µM] | microsomal CLint at 0.5 μM (in vitro [5]; pH 7.4, HLM CLint) [µL/min/mg] | SI (vs PMM) [6] | IC50 [7, 17] [µM] | microsomal CLint at 0.5 μM (in vitro [8]; pH 7.4, MLM CLint) [µL/min/mg] | chromatographic logD (physchem; experimental) | IC50 [9] [µM] | CC50 (in vitro [10]) [µM] | IC50 [4, 18] [µM] | CC50 at 120 h (in vitro [11]) [µM] | IC50 [12] [µM] | microsomal CLint at 0.5 μM (in vitro [5]; pH 7.4, HLM CLint (uL/min/mg)) [µL/min/mg] | Papp (in vitro [13]) [×10⁻⁶ cm/s] | IC50 [7, 19] [µM] | microsomal CLint at 0.5 μM (in vitro [8]; pH 7.4, MLM CLint (uL/min/mg)) [µL/min/mg] | also measured
CCN(Cc1ccccc1)S(=O)(=O)c1cc(F)ccc1N1CCCC1 [DNDI0003364614] | 0.34 | 4.9 | > 64 | 50.8 | 12.9 | 12.9 | 1470 | 4 | 7.33 | 3000 |  |  |  |  |  |  |  |  |  |  | 
COc1ccc(Cl)cc1S(=O)(=O)N(Cc1ccccc1)OC [DNDI0003364476] | 5.91 | 4.3 | > 64 | > 64 | 24.5 | 24.7 | 265 | 3 | 7.86 | 1890 |  |  |  |  |  |  |  |  |  |  | 
O=S(=O)(NCc1ccccc1)c1ccccc1 [DNDI0003363562] | 21.6 | 2.9 | > 64 | > 64 | > 64 | > 64 | 50 | 1 | > 64 | 161 |  |  |  |  |  |  |  |  |  |  | 
COc1ccc(OC)c(S(=O)(=O)N(Cc2ccccc2)Cc2ccccc2)c1 [DNDI0003292440] | 0.43 |  | 45.2 | > 64 | 0.372 | 0.36 | 242 |  | 5.71 | 1300 |  |  |  |  |  |  |  |  |  |  | 
CCN(Cc1ccccc1)S(=O)(=O)c1ccc(C)cc1 [DNDI0003297129] | 5.38 | 4.1 | > 64 | > 64 | 49 | 49.4 | 1740 | 1 | 28.8 |  |  |  |  |  |  |  |  |  |  |  | 
COCCN(Cc1ccccc1)S(=O)(=O)c1ccccc1OC(F)(F)F [DNDI0003392130] |  |  | > 64 |  | 8.32 |  |  |  |  |  | 3.8 | > 64 | 45.1 | 8.27 | > 64 | 31.2 | 194 | 5.26 | 17.8 | 222 | CC50 (in vitro [14]): > 64 µM
CCC(Cc1ccccc1)Sc1nc(C)cc(C)c1C#N (centres unmarked) [DNDI0003297457] | 0.19 | 5.4 | > 64 | 40.3 | 2.63 | 2.64 | 2010 | 15 | 6.9 | 1900 |  |  |  |  |  |  |  |  |  |  | 
CC[C@H](Cc1ccccc1)S(=O)(=O)c1ccccc1OC [DNDI0003362003] | 19.8 | 3.5 | > 64 | > 64 | 34.7 | 34.6 | 458 | 2 | 31.7 | 1060 |  |  |  |  |  |  |  |  |  |  | 
CCN(Cc1ccccc1)S(=O)(=O)c1ccc(NC(C)=O)cc1 [DNDI0003364473] | 13.6 | 3.5 | > 64 | > 64 | > 64 | > 64 | 205 | 1 | 33.1 | 398 |  |  |  |  |  |  |  |  |  |  | 
CCCCC1Nc2cc(Cl)c(S(N)(=O)=O)cc2S(=O)(=O)N1Cc1ccccc1 (centres unmarked) [DNDI0003392147] |  |  | > 64 |  | 7.24 |  |  |  |  |  | 4 | > 64 | > 64 | 7.3 | 12 | 23.4 | 22 | 1.39 | > 64 | 147 | CC50 (in vitro [14]): > 64 µM
CCN(Cc1ccccc1)S(=O)(=O)c1cc(OC)ccc1OC [DNDI0003365407] | 11.9 |  | > 64 | > 64 | 2.51 | 2.53 | 534 | 25 | 27.4 | 3500 |  |  |  |  |  |  |  |  |  |  | 
O=S(=O)(NCc1ccccc1)c1cc(F)ccc1F [DNDI0003365406] | 30.4 | 3.2 | > 64 | > 64 | 49 | 49.4 | 75 | 1 | > 64 | 260 |  |  |  |  |  |  |  |  |  |  | 
CCN(Cc1ccccc1)S(=O)(=O)c1ccccc1OC [DNDI0003363820] | 18.5 | 3.6 | 36.3 | > 64 | 11 | 11 | 406 | 6 | 30.1 | 1370 |  |  |  |  |  |  |  |  |  |  | 
O=C(c1ccc(OCC2CCCO2)c(S(=O)(=O)NCc2ccccc2)c1)N1CCOCC1 (centres unmarked) [DNDI0003407877] |  |  | > 64 |  | > 64 |  |  |  |  |  | 2.7 | > 64 | > 64 | > 64 | > 64 | > 64 | 85 | 14.7 | 31 | 181 | CC50 (in vitro [14]): > 64 µM
COc1ccc(C#N)cc1S(=O)(=O)N(Cc1ccc(C(F)(F)F)nc1)Cc1ccc(C(F)(F)F)nc1 [DNDI0003578377] |  |  | > 64 |  | 38 |  |  |  |  |  | 3.9 | > 64 | > 64 | 38.1 | > 64 | > 64 | 17 | 3.45 | 61.7 | 64 | CC50 (in vitro [14]): > 64 µM
O=S(=O)(NCc1ccccc1)c1cc2c(cc1Cl)NCN(Cc1ccccc1)S2(=O)=O [DNDI0003392144] |  |  | > 64 |  | > 64 |  |  |  |  |  | 3.7 | > 64 | 60.2 | > 64 | 53.2 | > 64 | 82 | 1.61 | 35.7 | 261 | CC50 (in vitro [14]): > 64 µM
CCCCC(=O)Nc1cccnc1S(=O)(=O)CCc1ccccc1 [DNDI0003363561] | 18.9 | 3.9 | > 64 | > 64 | > 64 | > 64 |  | 1 | > 64 |  |  |  |  |  |  |  |  |  |  |  | 
COc1ccc(C(=O)N2CCOCC2)cc1S(=O)(=O)N(Cc1ccc(C(F)(F)F)nc1)C(C)c1ccc(F)cc1 (centres unmarked) [DNDI0003407905] |  |  | > 64 |  | 2.34 |  |  |  |  |  | 3.8 | > 64 | 49.4 | 2.36 | > 64 | 9.86 | 267 | 18.1 | 25 | 531 | CC50 (in vitro [14]): > 64 µM
COc1cc2c(cc1S(=O)(=O)N(Cc1ccccc1)Cc1ccccc1)S(=O)(=O)NCN2 [DNDI0003425513] |  |  | 22.9 |  | 2.51 |  |  |  |  |  | 3.6 | > 64 | 21.9 | 2.53 | > 64 | 48.3 | 100 | 0.38 | 9.44 | 249 | CC50 (in vitro [14]): > 64 µM
COc1ccc(Cl)cc1S(=O)(=O)N(Cc1ccccc1)C1COC(=O)OC1 [DNDI0003392146] |  |  | 59.1 |  | 17 |  |  |  |  |  | 3.5 | > 64 | 54.8 | 16.9 | > 64 | > 64 | 21 | 13.2 | 17 | 118 | CC50 (in vitro [14]): > 64 µM
COc1ccc(Cl)cc1S(=O)(=O)N(CCO)Cc1ccccc1 [DNDI0003366068] | 20.1 | 3.5 | > 64 | > 64 | 37.2 | 37.5 | 180 | 2 | 26.8 |  |  |  |  |  |  |  |  |  |  |  | 

Source: article PMC8126888 (RSC Medicinal Chemistry, 2020)
